Data reported in patent publication US20220008566A1, “Pharmaceutical Composition Comprising a Radiolabeled GRPR Antagonist and a Surfactant” (Advanced Accelerator Applications International SA, priority 2018, published 2022).

Legend:
PC-3 cells = experiment: Therapeutic efficacy of 177Lu-NeoBOMB1 in PC-3 xenografted mice; type: in vivo, balb c nu/nu mice; conditions: for time to reach a tumor size of 2000 mm^3: 1 week apart, extrapolated growth curves; for animals without any tumor regrowth after a complete response: n=15
Experimental: Male balb c nu/nu mice were subcutaneously inoculated on the right shoulder with 200 μL 4×10^6 PC-3 cells (American Type Culture Collection) in inoculation medium (⅓ Matrigel high concentration (Corning)+⅔ Hank's balanced salt solution (Thermofisher Scientific)). Four weeks post tumor cell inoculation when an average tumor size of 543+177 mm^3 was reached, animals were divided in four groups: control group (n=10) and therapy group 1-3 (n=15 per group). To determine the efficacy of ^177Lu-NeoBOMB1, animals received either 3 sham injections (control group), 3×30 MBq/300 pmol ^177Lu-NeoBOMB1 (group 1), 3×40 MBq/400 pmol ^177Lu-NeoBOMB1 (group 2) or 3×60 MBq/600 pmol ^177Lu-NeoBOMB1 (group 3) under isoflurane/O2 anesthesia. Injections were administered intravenously and injections were given 1 week apart.
(§1) In both studies, animal weight and/or tumor size was measured bi-weekly. When tumor size was ≥2000 mm^3 or a decrease in animal weight ≥20% within 48 hours was observed, animals were removed from the study. In the efficacy study, animals were followed until the maximum allowed age of 230 days was reached.
The tumor doubling times were determined by fitting an exponential growth function to the tumor volume over time in the control group. In the therapy groups an interval with exponential tumor volume decline was fitted with onset of regrowth after the nadir time. The growth curves were extrapolated beyond the censoring time points for mice with too large tumors (>2000 mm^3) to determine average growth statistics. Tumor growth delay times were individually determined by comparing the times needed to reach the maximum tumor size of 2000 mm^3 with the mean time found in the control group.
Prism software (version 5.01, GraphPad Software) was used for statistical analyses. P values […] were considered statistically significant. The difference in tumor volume growths and delay times for the 4 groups were analyzed with the One-way ANOVA test with Bonferroni's multiple comparison test. Curve fitting was performed according to the least/square fit with the Pearson R^2 to quantify its goodness.

[1] = test system: non-tumor bearing balb c nu/nu male mice; experiment: Kidney and pancreas toxicity of 177Lu-NeoBOMB1 treatment; type: in vivo; conditions: for histopathology of the kidneys: 24 weeks after therapy
Experimental: To determine the effect of treatment on pancreas and kidney tissue, non-tumor bearing balb c nu/nu male mice received the same treatment as the animals included in the efficacy study. At 2 different time points after the last therapeutic injection (12 weeks and 24 weeks p.i.) animals were euthanized and pancreas and kidney tissue was collected for pathological analysis.
as §1
Pancreatic and kidney tissue collected for pathological analysis was formalin fixed and paraffin embedded. Hematoxylin and eosin staining was performed on […] thick tissue slices using the Ventana Symphony™ H&E protocol (Ventana), to determine differences in tissue structure between the 4 treatment groups. In total 4 tissue slices, […] apart from each other were evaluated of each organ. The hematoxylin and eosin staining's were evaluated by experienced pathologists.

[2] = Dosimetry: estimated absorbed dose to tumor, pancreas and kidneys (RADAR realistic mouse model)
Description: The RADAR realistic mouse model (Keenan M A, Stabin M G, Segars W P, Fernald M J. RADAR realistic animal model series for dose assessment. J Nucl Med. 2010; 51:471-476) with a weight of 25 g and data from previously published biodistribution and pharmacokinetic studies (Dalm S U, Bakker I L, de Blois E, et al. 68Ga/^177Lu-NeoBOMB1, a Novel Radiolabeled GRPR Antagonist for Theranostic Use in Oncology. J Nucl Med. 2017; 58:293-299) were used to calculate the dose to the tumor, pancreas and kidneys, when animals were treated with 3×30 MBq/300 pmol, […] or 3×60 MBq/600 pmol ^177Lu-NeoBOMB1. The biodistribution data of our previously published paper (Dalm S U, Bakker I L, de Blois E, et al. ^68Ga/^177Lu-NeoBOMB1, a Novel Radiolabeled GRPR Antagonist for Theranostic Use in Oncology. J Nucl Med. 2017; 58:293-299) were fitted with exponential curves to define the time-activity curve in the tumor and organs. The time integrated activities for ^177Lu were obtained by integrating these exponential curves folded with the 177Lu decay curve (T1/2=6.647 d). Absorbed doses per administered activities were obtained by multiplying with the organ S-values from Keenan et al. (Keenan M A, Stabin M G, Segars W P, Fernald M J. RADAR realistic animal model series for dose assessment. J Nucl Med. 2010; 51:471-476) or by using the spherical node S-values (Stabin M G, Konijnenberg M W. Re-evaluation of absorbed fractions for photons and electrons in spheres of various sizes. J Nucl Med. 2000; 41:149-160) for a 340 mg tumor.
An estimation was made of the radioactivity dose to the tumor, pancreas and kidneys after treatment with 3×30 MBq/300 pmol, 3×40 MBq/400 pmol or 3×60 MBq/600 pmol ^177Lu-NeoBOMB1 (See Table 3 below). For this it was assumed that tumor and organ uptake was similar after each injection.

[3] = 3×30 MBq/300 pmol, 1st injection
[4] = 3×30 MBq/300 pmol, 2nd injection
[5] = 3×30 MBq/300 pmol, 3rd injection
[6] = 3×40 MBq/400 pmol, 1st injection
[7] = 3×40 MBq/400 pmol, 2nd injection
[8] = 3×40 MBq/400 pmol, 3rd injection
[9] = 3×60 MBq/600 pmol, 1st injection
[10] = 3×60 MBq/600 pmol, 2nd injection
[11] = 3×60 MBq/600 pmol, 3rd injection

CC(C)CC(CC(C)C)NC(=O)[C@H](Cc1cnc[nH]1)NC(=O)CNC(=O)[C@@H](NC(=O)[C@H](C)NC(=O)[C@H](Cc1c[nH]c2ccccc12)NC(=O)[C@H](CCC(N)=O)NC(=O)[C@@H](Cc1ccccc1)NC(=O)COCC(=O)Nc1ccc(CNC(=O)CN2CCN(CC(=O)O)CCN(CC(=O)O)CCN(CC(=O)O)CC2)cc1)C(C)C [^177Lu-NeoBOMB1, metal not drawn]
therapy efficacy (PC-3 cells; all treatment groups vs control group): effective
Median survival (PC-3 cells; group 1, 3×30 MBq/300 pmol): 82 days
time to reach a tumor size of 2000 mm^3 (PC-3 cells; group 1, 3×30 MBq/300 pmol i.v.): 97 ± 59 days
animals without any tumor regrowth after a complete response (PC-3 cells; group 1, 3×30 MBq/300 pmol): two
Median survival (PC-3 cells; group 2, 3×40 MBq/400 pmol): 89 days
time to reach a tumor size of 2000 mm^3 (PC-3 cells; group 2, 3×40 MBq/400 pmol i.v.): 103 ± 66 days
animals without any tumor regrowth after a complete response (PC-3 cells; group 2, 3×40 MBq/400 pmol): one
Median survival (PC-3 cells; group 3, 3×60 MBq/600 pmol): 99 days
time to reach a tumor size of 2000 mm^3 (PC-3 cells; group 3, 3×60 MBq/600 pmol i.v.): 95 ± 26 days
histopathology of the kidneys, lymphocyte infiltration ([1]; 12 and 24 weeks after last injection, in control as well as treated animals, not related to therapy): small areas with lymphocyte infiltration
histopathology of the pancreas ([1]; H&E, 12 and 24 weeks after last injection): no tissue damage or other abnormalities
animal weight ([1]; all groups, follow-up up to 24 weeks): no critical decrease in weight
histopathology of the kidneys ([1]; group 3 (3×60 MBq/600 pmol), both animals): mild chronic inflammatory response
histopathology of the kidneys ([1]; lowest dose (3×30 MBq/300 pmol), ID: 864, unlikely related to therapy): atrophy and fibrosis were observed in the kidneys of only one animal
decrease in weight within 48 h ([1]; one animal from Group 1 (ID: 869)): less than 10%
Cumulative absorbed dose, Kidney [2, 3]: 1.7 Gy
Cumulative absorbed dose, Pancreas [2, 3]: 7.9 Gy
Cumulative absorbed dose, Tumor [2, 3]: 17 Gy
Cumulative absorbed dose, Kidney [2, 4]: 3.4 Gy
Cumulative absorbed dose, Pancreas [2, 4]: 16 Gy
Cumulative absorbed dose, Tumor [2, 4]: 34 Gy
Cumulative absorbed dose, Kidney [2, 5]: 5.1 Gy
Cumulative absorbed dose, Pancreas [2, 5]: 32 Gy
Cumulative absorbed dose, Tumor [2, 5]: 68 Gy
Cumulative absorbed dose, Kidney [2, 6]: 2.3 Gy
Cumulative absorbed dose, Pancreas [2, 6]: 11 Gy
Cumulative absorbed dose, Tumor [2, 6]: 23 Gy
Cumulative absorbed dose, Kidney [2, 7]: 4.5 Gy
Cumulative absorbed dose, Pancreas [2, 7]: 21 Gy
Cumulative absorbed dose, Tumor [2, 7]: 46 Gy
Cumulative absorbed dose, Kidney [2, 8]: 6.8 Gy
Cumulative absorbed dose, Pancreas [2, 8]: 42 Gy
Cumulative absorbed dose, Tumor [2, 8]: 91 Gy
Cumulative absorbed dose, Kidney [2, 9]: 3.4 Gy
Cumulative absorbed dose, Pancreas [2, 9]: 16 Gy
Cumulative absorbed dose, Tumor [2, 9]: 34 Gy
Cumulative absorbed dose, Kidney [2, 10]: 6.8 Gy
Cumulative absorbed dose, Pancreas [2, 10]: 32 Gy
Cumulative absorbed dose, Tumor [2, 10]: 68 Gy
Cumulative absorbed dose, Kidney [2, 11]: 10 Gy
Cumulative absorbed dose, Pancreas [2, 11]: 64 Gy
Cumulative absorbed dose, Tumor [2, 11]: 137 Gy
